Laboratory results: US4476299A, “Cyclic polyamino containing compounds having therapeutic effect and the preparation thereof” (priority 1981, dated 1984)
“Also recorded” adds a separate entry of the source. Like-named read-outs stand apart in the source and are kept apart here.

How the values were obtained:
P-388 cells = experiment: Antineoplastic action against implanted P-388 tumor, CDF1 mice, i.p.-i.p. (T/C %); format: in vivo; settings: for T/C (%): Table 7, P388 (i.p.-i.p.)
Method: (§1) In this animal test, the antineoplastic action against the implanted tumor was examined, in lower animals in vivo, in repsect to the compounds according to the present invention, by using CDF1 mice.
(§2) To the peritoneal cavity of each group of mice consisting of six CDF1 mice per group, 10^6 /0.1 ml of P-388 cells or 10^5 /0.1 ml of L-1210 cells were implanted. […] While to the control groups of CDF1 mice, P-388 and L-1210 cells were implanted in the same manner and they were bred without administration of the compounds. […]

L-1210 cells = experiment: Antineoplastic action against implanted L-1210 tumor, CDF1 mice, i.p.-i.p. (T/C %); format: in vivo; settings: Table 7, L1210 (i.p.-i.p.)
Method: as §1, §2

B-16 melanoma = experiment: Antineoplastic action against B-16 melanoma, i.p.-i.p. (T/C %); format: in vivo, mice; settings: for T/C (%): Table 7, B16 (i.p.-i.p.); for effective against B-16 melanoma: in words
From the text: as §1
(§3) As the screening test for confirming antineoplasticity of certain compound, it is known in the art that there are two kinds of tests, one being "in vitro" test wherein carcinoma cells in propagation in a test tube are used, the other being "in vivo" test wherein lower animals implanted with carcinoma cells are used. In Japan. the "in vivo" test is usually carried out by using Ehrlich tumor, L-1210 cells, sarcoma 180 cells, Yoshida sarcoma or ascites-liver tumor as ascitic tumor and immobilized carcinoma mentioned above as fixed carcinoma. Recently, a new method for confirming the antineoplasticity has been developed, in which lymphocytic leukemia cells P-388 are used. It is known that P-388 has more strong sensitivity than L-1210. As fixed carcinoma, there may be mentioned, for example Lewis lung cancer B-16 melanoma, MM2, MOPC 104E, Colon 26, MH 134, C-1498 and the like.
(§4) The new compounds of the present invention were confirmed to be effective to the P-388 cells in the light of the screening test's results hereinbefore described.

MM2 = experiment: Antineoplastic action against MM2 tumor, i.p.-i.p. (T/C %); format: in vivo, mice; settings: for T/C (%) / 60< (mice, fraction of group): Table 7, MM2 (i.p.-i.p.); for effective against MM2: in words
From the text: as §1, §3, §4

[1] = Toxicity test: lethal dose in mice (Litchfield-Wilcoxon); set-up: species or system male 4-weeks CD-1 (ICR) mice; settings: mouse, in vivo, 7 days, read-out: LD50 and 95% Confidence Limit
Method: With respect to the compounds of this invention, the lethal dose was determined as follows.
By using male 4-weeks CD-1 (ICR) mice consisting of 5 to 10 mice per group, the desired amount of each compound of this invention was suspended in 0.5% CMC solution and the resultant suspension was administered to each mouse intraperitoneally or intravenously. Observing the life or death as well as the general symptome during 7 days after the administration of the compounds, the value of LD50 for each compounds was estimated from the lethal population observed on the basis of the Litchfield-Wilcoxon method.

CD-1 (IRC) mice = experiment: Neuropharmacological multidimensional observation (modified Arwin method and Smith method) in mice; format: in vivo, 4-weeks CD-1 (IRC) mice; settings: i.p., 1 to 20 mg/kg, observed every 30 minutes for 180 minutes
Method: In this test, other pharmacological effects which may be obtained by these compounds were investigated.
Each compound of the invention was intraperitoneally administered to 4-weeks CD-1 (IRC) mice (Nippon Charles Liver K.K.) in the dose of 1 to 20 mg/kg with using mice groups consisting of three mice per group. […] The observation was carried out according to the modified Arwin method and Smith method, i.e., neuropharmacological multidimentional observation method.
Making a comparison between the symptom observed and the pattern of the pharmacological action due to the known medicines, it has been discovered that each compound of the invention has the following pharmacological effect.

[2] = Mus musculus, P388, ip, read-out: T/C %, (Treatment/Control %)
[3] = Mus musculus, ip, Table 6, P388, dose 0.05 mg/kg, i.p., read-out: T/C %, (Treatment/Control %)
[4] = Mus musculus, ip, Table 6, P388, dose 0.5 mg/kg, i.p., read-out: T/C %, (Treatment/Control %)
[5] = Mus musculus, ip, Table 6, P388, dose 2 mg/kg, i.p., read-out: T/C %, (Treatment/Control %)

## CCCCCCOc1ccc2cc1Oc1ccc(cc1)CC1C(=O)N(C)C(C2)C(=O)NC(C)C(=O)NC(C)C(=O)N(C)C(Cc2ccc(OC)cc2)C(=O)NC(C)C(=O)N1C (centres unmarked) [Ex. 2, n-hexylether of the compound TPC-A]
P-388 cells; [2]
  response vs control in vivo at 0.05 mg/kg: 110%
  response vs control in vivo at 0.5 mg/kg: 137%
  response vs control in vivo at 2 mg/kg: 154%
  response vs control in vivo at 4 mg/kg: 173%
P-388 cells; 0.05 mg/kg
  T/C (%): 130.4%
P-388 cells; 0.5 mg/kg
  T/C (%): 143.5%
P-388 cells; 2 mg/kg
  T/C (%): 150.0%
P-388 cells; 5 mg/kg
  T/C (%): 176.1%
L-1210 cells; 0.5 mg/kg
  T/C (%): 115.6%
L-1210 cells; 2 mg/kg
  T/C (%): 126.6%
L-1210 cells; 4 mg/kg
  T/C (%): 130.9%
B-16 melanoma; 0.5 mg/kg
  T/C (%): 130.5%
B-16 melanoma; 2 mg/kg
  T/C (%): 158.2%
B-16 melanoma; 4 mg/kg
  T/C (%): 136.2%
B-16 melanoma
  effective against B-16 melanoma: effective against B-16 melanoma
MM2; 0.5 mg/kg
  T/C (%): 110.3%
MM2; 2 mg/kg
  60< (mice, fraction of group): 3/6
  T/C (%): 129.3%
MM2; 4 mg/kg
  60< (mice, fraction of group): 1/7
  T/C (%): 161.8%
MM2
  effective against MM2: effective

## CCCCCC(=O)Oc1ccc2cc1Oc1ccc(cc1)CC1C(=O)N(C)C(C2)C(=O)NC(C)C(=O)NC(C)C(=O)N(C)C(Cc2ccc(OC)cc2)C(=O)NC(C)C(=O)N1C (centres unmarked) [Ex. 21, caproate of TPC-A]
P-388 cells; [2]
  response vs control in vivo at 0.05 mg/kg: 134%
  response vs control in vivo at 0.5 mg/kg: 143%
  response vs control in vivo at 2 mg/kg: 152%
  response vs control in vivo at 10 mg/kg: 197%
P-388 cells; 0.01 mg/kg
  T/C (%): 133.7%
P-388 cells; 0.1 mg/kg
  T/C (%): 135.9%
P-388 cells; 2 mg/kg
  T/C (%): 152.2%
L-1210 cells; 0.5 mg/kg
  T/C (%): 115.6%
L-1210 cells; 2 mg/kg
  T/C (%): 126.6%
L-1210 cells; 10 mg/kg
  T/C (%): 67.3%
B-16 melanoma; 0.5 mg/kg
  T/C (%): 143.5%
B-16 melanoma; 2 mg/kg
  T/C (%): 152.0%
B-16 melanoma; 5 mg/kg
  T/C (%): 165.5%
MM2; 0.5 mg/kg
  T/C (%): 112.1%
MM2; 2 mg/kg
  60< (mice, fraction of group): 2/6
  T/C (%): 127.3%
MM2; 10 mg/kg
  T/C (%): 93.9%

## CC=CC(=O)Oc1ccc2cc1Oc1ccc(cc1)CC1C(=O)N(C)C(C2)C(=O)NC(C)C(=O)NC(C)C(=O)N(C)C(Cc2ccc(OC)cc2)C(=O)NC(C)C(=O)N1C (centres unmarked) [Ex. 26]
P-388 cells; [2]
  response vs control in vivo at 0.05 mg/kg: 124%
  response vs control in vivo at 0.5 mg/kg: 148%
  response vs control in vivo at 2 mg/kg: 162%
  response vs control in vivo at 10 mg/kg: 187%

## CCCCC(=O)Oc1ccc2cc1Oc1ccc(cc1)CC1C(=O)N(C)C(C2)C(=O)NC(C)C(=O)NC(C)C(=O)N(C)C(Cc2ccc(OC)cc2)C(=O)NC(C)C(=O)N1C (centres unmarked) [Ex. 27]
P-388 cells; [2]
  response vs control in vivo at 0.05 mg/kg: 118%
  response vs control in vivo at 0.5 mg/kg: 150%
  response vs control in vivo at 2 mg/kg: 158%
  response vs control in vivo at 10 mg/kg: 172%

## CCCCCCC(=O)Oc1ccc2cc1Oc1ccc(cc1)CC1C(=O)N(C)C(C2)C(=O)NC(C)C(=O)NC(C)C(=O)N(C)C(Cc2ccc(OC)cc2)C(=O)NC(C)C(=O)N1C (centres unmarked) [Ex. 28]
P-388 cells; [2]
  response vs control in vivo at 0.05 mg/kg: 114%
  response vs control in vivo at 0.5 mg/kg: 144%
  response vs control in vivo at 2 mg/kg: 150%

## CCCCCCCC(=O)Oc1ccc2cc1Oc1ccc(cc1)CC1C(=O)N(C)C(C2)C(=O)NC(C)C(=O)NC(C)C(=O)N(C)C(Cc2ccc(OC)cc2)C(=O)NC(C)C(=O)N1C (centres unmarked) [Ex. 29]
P-388 cells; [2]
  response vs control in vivo at 0.05 mg/kg: 127%
  response vs control in vivo at 0.5 mg/kg: 147%
  response vs control in vivo at 2 mg/kg: 167%
  response vs control in vivo at 10 mg/kg: 169%

## CCCCCCCCCC(=O)Oc1ccc2cc1Oc1ccc(cc1)CC1C(=O)N(C)C(C2)C(=O)NC(C)C(=O)NC(C)C(=O)N(C)C(Cc2ccc(OC)cc2)C(=O)NC(C)C(=O)N1C (centres unmarked) [Ex. 30]
P-388 cells; [2]
  response vs control in vivo at 0.05 mg/kg: 122%
  response vs control in vivo at 0.5 mg/kg: 146%
  response vs control in vivo at 2 mg/kg: 152%
  response vs control in vivo at 10 mg/kg: 151%
B-16 melanoma
  effective against B-16 melanoma: effective against B-16 melanoma
MM2
  effective against MM2: effective

## COc1ccc(CC2C(=O)NC(C)C(=O)N(C)C3Cc4ccc(cc4)Oc4cc(ccc4OC(=O)c4ccccc4)CC(C(=O)NC(C)C(=O)NC(C)C(=O)N2C)N(C)C3=O)cc1 (centres unmarked) [Ex. 32]
P-388 cells; [2]
  response vs control in vivo at 0.05 mg/kg: 128%
  response vs control in vivo at 0.5 mg/kg: 186%
  response vs control in vivo at 2 mg/kg: 176%
  response vs control in vivo at 10 mg/kg: 183%

## COc1ccc(CC2C(=O)NC(C)C(=O)N(C)C3Cc4ccc(cc4)Oc4cc(ccc4OC(=O)CCC(C)C)CC(C(=O)NC(C)C(=O)NC(C)C(=O)N2C)N(C)C3=O)cc1 (centres unmarked) [Ex. 40, 4-methyl valerate]
P-388 cells; [2]
  response vs control in vivo at 0.05 mg/kg: 112%
  response vs control in vivo at 0.5 mg/kg: 134%
  response vs control in vivo at 2 mg/kg: 152%

## COc1ccc(CC2C(=O)NC(C)C(=O)N(C)C3Cc4ccc(cc4)Oc4cc(ccc4OC(=O)Cc4ccccc4)CC(C(=O)NC(C)C(=O)NC(C)C(=O)N2C)N(C)C3=O)cc1 (centres unmarked) [Ex. 41]
P-388 cells; [3]
  response vs control in vivo at 0.05 mg/kg: 118%
P-388 cells; [4]
  response vs control in vivo at 0.5 mg/kg: 147%
P-388 cells; [5]
  response vs control in vivo at 2 mg/kg: 159%

## CCC(C)CC(=O)Oc1ccc2cc1Oc1ccc(cc1)CC1C(=O)N(C)C(C2)C(=O)NC(C)C(=O)NC(C)C(=O)N(C)C(Cc2ccc(OC)cc2)C(=O)NC(C)C(=O)N1C (centres unmarked) [Ex. 42]
P-388 cells; [2]
  response vs control in vivo at 0.05 mg/kg: 115%
  response vs control in vivo at 0.5 mg/kg: 140%
  response vs control in vivo at 2 mg/kg: 159%

## CCCC(C)C(=O)Oc1ccc2cc1Oc1ccc(cc1)CC1C(=O)N(C)C(C2)C(=O)NC(C)C(=O)NC(C)C(=O)N(C)C(Cc2ccc(OC)cc2)C(=O)NC(C)C(=O)N1C (centres unmarked) [Ex. 43]
P-388 cells; [2]
  response vs control in vivo at 0.05 mg/kg: 117%
  response vs control in vivo at 0.5 mg/kg: 142%
  response vs control in vivo at 2 mg/kg: 154%

## CCCC=CC(=O)Oc1ccc2cc1Oc1ccc(cc1)CC1C(=O)N(C)C(C2)C(=O)NC(C)C(=O)NC(C)C(=O)N(C)C(Cc2ccc(OC)cc2)C(=O)NC(C)C(=O)N1C (centres unmarked) [Ex. 44]
P-388 cells; [2]
  response vs control in vivo at 0.05 mg/kg: 117%
  response vs control in vivo at 0.5 mg/kg: 150%
  response vs control in vivo at 2 mg/kg: 165%

## CCC=CCC(=O)Oc1ccc2cc1Oc1ccc(cc1)CC1C(=O)N(C)C(C2)C(=O)NC(C)C(=O)NC(C)C(=O)N(C)C(Cc2ccc(OC)cc2)C(=O)NC(C)C(=O)N1C (centres unmarked) [Ex. 45]
P-388 cells; [3]
  response vs control in vivo at 0.05 mg/kg: 122%
P-388 cells; [4]
  response vs control in vivo at 0.5 mg/kg: 145%
P-388 cells; [5]
  response vs control in vivo at 2 mg/kg: 162%

## COc1ccc(CC2C(=O)NC(C)C(=O)N(C)C3Cc4ccc(cc4)Oc4cc(ccc4O)CC(C(=O)NC(C)C(=O)NC(C)C(=O)N2C)N(C)C3=O)cc1 (centres unmarked) [TPC-A]
P-388 cells; Mus musculus, ip, Table 6, P388, dose 10 mg/kg, i.p., read-out: T/C %, (Treatment/Control %)
  response vs control in vivo at 10 mg/kg: 187%
P-388 cells; in words
  antineoplastic effect / effective to P-388 cells: has antineoplastic effect by itself
[1]; intravenous
  LD50 at 168 h: 34 mg/kg
[1]; ip, intraperitoneal
  LD50 at 168 h: 16 mg/kg
CD-1 (IRC) mice
  Pharmacological effect estimated: emetic action; also recorded: anorexigenic action; also recorded: psychotropic action; also recorded: papaverine action
